Earlier results, collected in publication PMC6370995, “Phase I study of PF‐04895162, a Kv7 channel opener, reveals unexpected hepatotoxicity in healthy subjects, but not rats or monkeys: clinical evidence of disrupted bile acid homeostasis” (Pharmacology Research & Perspectives, 2019).

How the values were obtained:
patients = system: patients; parameters: method as in PMID 27178047; settings: 50 mg once daily, Phase 3 clinical study; cited from earlier work
BSEP = system: BSEP; parameters: method as in PMID 11309550; settings: cited from earlier work

Row | SMILES | clinical liver finding (patients) | BSEP inhibition potency (BSEP)
1 | Cc1cc(OCCCS(C)(=O)=O)cc(C)c1-c1cccc(COc2ccc3c(c2)OC[C@H]3CC(=O)O)c1 [TAK‐875] | clinical hepatotoxicity in a small number of patients | 
2 | COc1ccccc1Oc1c(NS(=O)(=O)c2ccc(C(C)(C)C)cc2)nc(-c2ncccn2)nc1OCCO [bosentan] |  | ~ 12 μmol/L
